Values of other authors, collected in patent US10590413B2, “Chiral control” (WAVE LIFE SCIENCES LTD., priority 2012, dated 2020).
Like-named read-outs stand apart in the source and are kept apart here.

Experiments:
[1] = tested on: ODN-induced cytokine expression; settings: ELISA on supernatants from DBA/2 spleen cells, 2 × 10^7 cells/ml, 24 hr, ODN at 30 μg/ml; cited from earlier work
NK activity = settings: cited from earlier work
human PBMC = settings: cited from earlier work
[2] = tested on: Murine IL-6 production and B cell activation; settings: cited from earlier work; for IL-6 (pg/ml) CH12.LX: CH12.LX cells; for IL-6 (pg/ml) SPLENIC B CELL: splenic B cells
[3] = oligo 1619 alone or with a second "bad" CpG oligonucleotide added; cited from earlier work
[4] = ODN 12 μg/ml, 24 hr, 10% autologous serum, level above wells with no ODN, ELISA
[5] = unstimulated control ≤10 pg/ml, US 6,239,116 Table 2

Q: For “1619 (DNA TCCATGTCGTTCCTGATGCT; chemistry not given here) [Oligonucleotide 1619]”, which “ODN-induced cytokine expression IFN-γ” value [1] is on record?
A: The value was 4628 pg/mL.

Q: And the “ODN-induced cytokine expression IL-6” value [1]?
A: The value was 1405 pg/mL.

Q: And the “ODN-induced cytokine expression IL-12” value [1]?
A: Its value is 3130 pg/mL.

Q: And the “LU/10^6, Mouse Cells” value (NK activity; Expt. 3, None = 0.00)?
A: The value was 3.35 LU/10^6.

Q: What about the “NK activity LU/10^5 Mouse Cells” value (NK activity; Table 3 of U.S. Pat. No. 6,214,806) of the same substance?
A: Its value is 3.35 LU/10^5.

Q: What about the “NK activity LU/10^6 Mouse Cells” value (NK activity; Table 9 of U.S. Pat. No. 6,207,646) of the same substance?
A: Its value is 3.35 LU/10^6.

Q: And the TNF-α (human PBMC; ODN 12 μg/ml, 4 hr, 10% autologous serum, level above wells with no ODN, ELISA)?
A: The TNF-α was 450 pg/mL.

Q: And the GM-CSF (human PBMC; [4])?
A: The GM-CSF was 80 pg/mL.

Q: And the IFN-γ (human PBMC; [4])?
A: Its IFN-γ is 200 pg/mL.

Q: And the IL-6 (human PBMC; [4])?
A: The IL-6 was 275 pg/mL.

Q: And the IL-12 (human PBMC; [4])?
A: Its IL-12 is 450 pg/mL.

Q: And the GM-CSF (human PBMC)?
A: Its GM-CSF is 80.

Q: And the IFN-γ (human PBMC)?
A: Its IFN-γ is 200.

Q: And the IL-6 (human PBMC)?
A: Its IL-6 is 275.

Q: And the IL-12 (human PBMC)?
A: Its IL-12 is >500.

Q: And the TNF-α (human PBMC)?
A: The TNF-α was 450.

Q: And the “IL-6 (pg/ml) CH12.LX” value [2]?
A: Its value is 1555 ± 304 pg/mL.

Q: What about the “IL-6 (pg/ml) CH12.LX” value [2, 5] of the same substance?
A: Its value is 1555 ± 304 pg/mL.

Q: What about the “SI (stimulation index, [3H] uridine uptake, fold increase from unstimulated control)” value ([2]; cells stimulated with 20 μM CpG O-ODN, mean ± SD of triplicates) of the same substance?
A: The value was 12.5 ± 1.0.

Q: What about the “SI (stimulation index, [3H] uridine uptake)” value ([2]; fold increase from unstimulated control, 20 μM CpG O-ODN, mean ± SD of triplicates) of the same substance?
A: The value was 12.5 ± 1.0.

Q: What about the IgM ([2]; measured by ELISA, unstimulated culture 547 ± 82 ng/ml) of the same substance?
A: Its IgM is 8243 ± 698 ng/mL.

Q: And the “IL-6 (pg/ml) SPLENIC B CELL” value [2]?
A: Its value is 2908 ± 129 pg/mL.

Q: And the “IL-6 (pg/ml) SPLENIC B CELL” value [2, 5]?
A: Its value is 2908 ± 129 pg/mL.

Q: What about the IL-12 in pg/ml [3] of the same substance?
A: Its IL-12 in pg/ml is 6 pg/mL.
